≈ marks a conversion by molar mass, not a printed value.
How the values were obtained:
Format in all cases: cell-based, human
Settings in all cases: 6 days incubation, 50% reduction of absorbance vs untreated controls, mean of 2 observations
[1] = tested on: Hs 740.T stomach carcinoma cell line; experiment: MTT cytotoxicity assay, Hs 740.T
Excerpt: (§1) Here, as described herein below, the inventors used human stomach carcinoma (Hs 740.T, Hs 756 T), breast adenocarcinoma (Hs 578 T, Hs 742.T) and prostate carcinoma (DU 145, and LNCaP-FGC) cell lines to evaluate the cytotoxic activities of extracts and the compounds provided the invention. The 50% effective doses (ED50) obtained by measuring growth inhibition with MTT (3-[4,5-dimethlthiazol-2-yl]-2,5-diphenyltetrazolium bromide]) (Goren et al, 1996; Rubinstein et al, 1990) are shown in Table 3.
(§2) The following materials and reagents were used for cell culture and cytotoxic assays. Human stomach carcinoma (Hs 740.T, Hs 756 T), breast adenocarcinoma (Hs 578 T, Hs 742.T) and prostate carcinoma (DU 145, LNCaP-FGC) cell lines were purchased from the American Type Culture Collection ATCC. Dulbecco's modified Eagle medium (DMEM) (Gibco, Grand Island, N.Y.), Eagle Minimum Essential Medium (EMEM) and Rosewell Park Memorial Institute (RPMI) 1640 medium were from Nissui Pharm. Co., Ltd., Tokyo, Japan. Flat-bottom plates, 96-well were from Iwaki Glass Co., LTD (Funabashi-Chiba-Ken, Japan). The 3-[4,5-dimethlthiazol-2-yl]-2,5-diphenyltetrazolium bromide (MTT) colorimetric assay (Goren et al., 1996; Rubinstein et al., 1990) was from Sigma (St. Louis, Mo., USA), and 10% fetal bovine serum FBS was from Gibco BRL (Rockville, Md., USA). All other chemicals used were of analytical reagent grade.
(§3) Cell lines Hs 740.T, Hs 746 T, Hs 578 T and Hs 742.T were cultured in Dulbecco's Modified Eagle's Medium (DMEM) containing 10% heat-inactivated Fetal Bovine Serum (FBS). The DU 145 cells were cultured in Eagle Minimum Essential Medium (EMEM) containing Earle's salts and supplemented with amino acids and 10% heat-inactivated FBS. The LNCaP-FGC cell lines were maintained in Rosewell Park Memorial Institute (RPMI) 1640 medium containing 10% heat-inactivated FBS. All cell lines were cultivated in an incubator at 37° C. in humidified air containing 5% CO2. For routine cytotoxicity assays, all six cell lines were adapted to one single medium RPMI 1640 medium supplemented with 10% FBS, 2 mM L-glutamine, penicillin (100 units/mL) and streptomycin (100 μg/mL). For the microassay, the growth medium was supplemented with 10 mM HEPES (1-(2-hydroxyethyl) piperazine-4-ethanesulfonic acid) buffer (pH 7.3) and incubated at 37° C. in a CO2 incubator. These methods are similar to those used by Goren et al., (1996) AND Rubinstein et al., (1990).
(§4) Cellular viability in the presence and absence of experimental agents was determined using the standard MTT (3-[4,5-dimethlthiazol-2-yl]-2,5-diphenyltetrazolium bromide) calorimetric assay (Goren et al., 1996; Rubinstein et al., 1990). The assay is based on reduction of MTT by the mitochondrial dehydrogenase of viable cells to give a blue formazan product that can be measured spectrophotometrically (Goren et al., 1996; Rubinstein et al., 1990). In brief, exponentially growing cells were harvested, and 200 μL cells suspension were seeded in 96-well microplates and preincubated for 24 h at 37° C. under 5% CO2 to allow cell attachment. After attachment, 10 μL of an EtOH: H2O (1:1 solution) containing varying concentrations of test samples were added to wells in duplicate, and 10 μL EtOH:H2O (1:1) was added into wells as a control. Sample containing microplates were further incubated for 6 days. Cell survival was evaluated by adding 10 μL of 5 mg mL of MTT in 0.1 mM, pH 7.4 phosphate buffered saline to each well, and reincubating plates in 5% CO2/air for 4 h at 37° C. Plates were then centrifuged at 1,500×g for 5 min to precipitate cells and MTT formazan. An aliquot of 100 μL of the supernatant was removed, and DMSO (100 μL) was added to dissolve the precipitated, reduced MTT. The plate was mixed on a microshaker for 10 min, and the absorbance was determined at 550 nm with a multiwell scanning spectrophotometer (Dynex MR 5000, Chantilly Va.). […]

[2] = tested on: HS 742.T breast adenocarcinoma cell line; experiment: MTT cytotoxicity assay, HS 742.T
Excerpt: as §1, §2, §3, §4

[3] = tested on: Hs 746 T stomach carcinoma cell line; experiment: MTT cytotoxicity assay, Hs 746 T
Excerpt: as §1, §2, §3, §4

[4] = tested on: Hs 578 T breast adenocarcinoma cell line; experiment: MTT cytotoxicity assay, Hs 578 T
Excerpt: as §1, §2, §3, §4

[5] = tested on: LNCAp-FGC prostate carcinoma cell line; experiment: MTT cytotoxicity assay, LNCaP-FGC
Excerpt: as §1, §2, §3, §4

[6] = tested on: DU 145 prostate carcinoma cell line; experiment: MTT cytotoxicity assay, DU 145
Excerpt: as §1, §2, §3, §4

Row | Structure (SMILES) | ED50 Stomach Carcinoma Hs 740.T [1] | ED50 Breast Adenocarcinoma HS 742.T [2] | ED50 Stomach Carcinoma Hs 746 T [3] | ED50 Breast Adenocarcinoma Hs 578 T [4] | ED50 Prostate Carcinoma LNCAp-FGC [5] | ED50 Prostate Carcinoma DU 145 [6]
1 | O=C1c2ccc(O[C@@H]3O[C@H](CO)[C@@H](O)[C@H](O)[C@H]3O)cc2OCC1c1ccc(O)cc1 (stereo partly drawn) [Compound 1, 7-O-β-D-glucopyranosyl-4′-hydroxy-isoflavanone] | 17.37 µg/mL (≈ 41.5 µM) | 33.57 µg/mL (≈ 80.2 µM) | 14.92 µg/mL (≈ 35.7 µM) | 28.23 µg/mL (≈ 67.5 µM) | 32.45 µg/mL (≈ 77.6 µM) | 9.16 µg/mL (≈ 21.9 µM)
2 | O=C1c2c(O)cc(O[C@@H]3O[C@H](CO)[C@@H](O)[C@H](O)[C@H]3O)cc2OCC1c1ccc(O)cc1 (stereo partly drawn) [Compound 2, 7-O-β-D-glucopyranosyl-5,7,4′-trihydroxyisoflavanone] | 15.12 µg/mL (≈ 34.8 µM) | 30.80 µg/mL (≈ 70.9 µM) | 12.24 µg/mL (≈ 28.2 µM) | 15.36 µg/mL (≈ 35.4 µM) | 41.58 µg/mL (≈ 95.7 µM) | 10.25 µg/mL (≈ 23.6 µM)
3 | COc1ccc(-c2coc3cc(OC4OC(COC(C)=O)[C@@H](O)C(O)C4OC(C)=O)ccc3c2=O)cc1 (stereo partly drawn) [Compound 3, formononetin-7-O-(2″,6″-O-diacetyl) glucopyranoside] | 7.61 µg/mL (≈ 14.8 µM) | 25.53 µg/mL (≈ 49.6 µM) | 8.89 µg/mL (≈ 17.3 µM) | 5.44 µg/mL (≈ 10.6 µM) | 22.12 µg/mL (≈ 43 µM) | 4.18 µg/mL (≈ 8.12 µM)
4 | O=c1c(-c2ccc(O)cc2)coc2cc(O)cc(O)c12 [Compound 5, genistein, reference compound] | 4.38 µg/mL (≈ 16.2 µM) | 14.88 µg/mL (≈ 55.1 µM) | 5.82 µg/mL (≈ 21.5 µM) | 3.50 µg/mL (≈ 13 µM) | 25.45 µg/mL (≈ 94.2 µM) | 2.39 µg/mL (≈ 8.84 µM)
5 | C[C@@H]1O[C@@H](O[C@H]2[C@H](O[C@@H]3CC(C)(C)C[C@H]4C5=CC[C@@H]6[C@@]7(C)CC[C@H](O[C@@H]8O[C@H](C(=O)O)[C@@H](O)[C@H](O)[C@H]8O[C@@H]8O[C@H](CO)[C@H](O)[C@H](O)[C@H]8O[C@@H]8O[C@@H](C)[C@H](O)[C@@H](O)[C@H]8O)[C@@](C)(CO)[C@@H]7CC[C@@]6(C)[C@]5(C)CC[C@@]34C)OC[C@H](O)[C@@H]2O)[C@H](O)[C@H](O)[C@H]1O [Compound 13] | 3.53 µg/mL (≈ 2.89 µM) | 17.51 µg/mL (≈ 14.3 µM) | 2.47 µg/mL (≈ 2.02 µM) | 2.39 µg/mL (≈ 1.96 µM) | 27.50 µg/mL (≈ 22.5 µM) | 3.12 µg/mL (≈ 2.55 µM)
6 | C[C@@H]1O[C@@H](O[C@H]2[C@H](O[C@H]3[C@H](O[C@H]4CC[C@@]5(C)[C@@H](CC[C@]6(C)[C@@H]5CC=C5[C@@H]7CC(C)(C)C[C@@H](O[C@@H]8O[C@H](CO)[C@@H](O)[C@H](O)[C@H]8O[C@@H]8O[C@@H](C)[C@H](O)[C@@H](O)[C@H]8O)[C@]7(C)CC[C@]56C)[C@]4(C)CO)O[C@H](C(=O)O)[C@@H](O)[C@@H]3O)O[C@H](CO)[C@H](O)[C@@H]2O)[C@H](O)[C@H](O)[C@H]1O [Compound 14] | 4.10 µg/mL (≈ 3.28 µM) | 14.63 µg/mL (≈ 11.7 µM) | 3.94 µg/mL (≈ 3.15 µM) | 2.12 µg/mL (≈ 1.69 µM) | 24.10 µg/mL (≈ 19.3 µM) | 3.25 µg/mL (≈ 2.6 µM)
7 | CC1(C)C[C@H]2C3=CC[C@@H]4[C@@]5(C)CC[C@H](O[C@@H]6O[C@H](C(=O)O)[C@@H](O)[C@H](O)[C@H]6O[C@@H]6O[C@H](CO)[C@H](O)[C@H](O)[C@H]6O)[C@](C)(CO)[C@@H]5CC[C@@]4(C)[C@]3(C)CC[C@@]2(C)[C@H](O[C@@H]2OC[C@H](O)[C@H](O[C@@H]3O[C@H](CO)[C@@H](O)[C@H](O)[C@H]3O)[C@H]2O)[C@@H]1O [Compound 15, 3-O-{[β-D-galactopyranosyl-(1→2)-β-D-glucuronopyranosyl]}-22-O-[β-D-glucopyranosyl(1→3)-α-L-arabinopyranosyl]soyasapogenol A, reference compound] | 3.15 µg/mL (≈ 2.84 µM) | 30.10 µg/mL (≈ 27.2 µM) | 3.22 µg/mL (≈ 2.91 µM) | 4.84 µg/mL (≈ 4.37 µM) | 30.70 µg/mL (≈ 27.7 µM) | 2.11 µg/mL (≈ 1.91 µM)
8 | CC1(C)C[C@@H](O)[C@]2(C)CC[C@]3(C)C(=CC[C@@H]4[C@@]5(C)CC[C@H](O[C@@H]6O[C@H](C(=O)O)[C@@H](O)[C@H](O)[C@H]6O[C@@H]6O[C@H](CO)[C@H](O)[C@H](O)[C@H]6O[C@@H]6O[C@H](CO)[C@@H](O)[C@H](O)[C@H]6O)[C@@](C)(CO)[C@@H]5CC[C@]43C)[C@@H]2C1 [Compound 16, 3-O-[β-D-glucopyranosyl-(1→2)-β-D-galactopyranosyl(1→2)-β-D-glucuronopyranosyl] soyasapogenol B, reference compound] | 8.97 µg/mL (≈ 9.35 µM) | 31.55 µg/mL (≈ 32.9 µM) | 7.36 µg/mL (≈ 7.67 µM) | 9.87 µg/mL (≈ 10.3 µM) | 40.68 µg/mL (≈ 42.4 µM) | 5.75 µg/mL (≈ 5.99 µM)
9 | CC1(C)C[C@@H](O)[C@]2(C)CC[C@]3(C)C(=CC[C@@H]4[C@@]5(C)CC[C@H](O[C@@H]6O[C@H](C(=O)O)[C@@H](O)[C@H](O)[C@H]6O)[C@@](C)(CO)[C@@H]5CC[C@]43C)[C@@H]2C1 [Compound 17, 3-O-[β-D-glucuronopyranosyl]soyasapogenol B, reference compound] | 9.61 µg/mL (≈ 15.1 µM) | 28.68 µg/mL (≈ 45.2 µM) | 9.59 µg/mL (≈ 15.1 µM) | 8.77 µg/mL (≈ 13.8 µM) | 37.29 µg/mL (≈ 58.7 µM) | 9.13 µg/mL (≈ 14.4 µM)

From US7112573B2, “Isoflavone and triterpene glycosides from soybeans” (Iowa Research, The University Foundation, priority 2002, dated 2006)
